Measurements as given in patent publication US7772260B2, “Imidazo[2,1-b]-1,3,4-thiadiazole sulfonamides” (Aegera Therapeutics Inc., priority 2001, dated 2010).
Where “and” joins values, the source holds several entries; their conditions need not be identical. Equal entries are not always repeated. Structures can show the parent of a compound that is named as a salt. Where two headings read alike, the source gives them in different places.

Tests used:
SCG neurons [1] = experiment: Protection of SCG neurons from anti-NGF killing; format: cell-based, Sprague Dawley rats; conditions: anti-NGF antibody, serum and NGF free 48 hours, Alamar Blue, +/−1 uM, read-out: IC(50), rescue from anti-NGF killing of SCG neurons
Description: Neurotrophins are critical to the growth, development, and survival of small fiber neurons of the PNS. SCG neurons are neurons of the PNS that undergo apoptosis upon NGF withdrawal. In a typical experiment SCG neurons are cultured in the presence of NGF, which induces survival and neurite out-growth. After 5 days the NGF is removed by either the addition of anti-NGF polyclonal antibody (Sigma) or by repeated washings (4 times) with NGF free media, resulting in the apoptosis of up to 90% of the neurons after 48 hours, as measured by MTS staining.
After 4 days the cells were treated with anti-NGF antibody (Sigma). At this time compound was added and the cells were maintained serum and NGF free for 48 hours, at which time viability was assessed using Alamar Blue (Medicorp) staining.

SCG neurons [2] = experiment: cells; format: cell-based, Sprague Dawley rats
Description: Taxol™ is regularly used in breast cancer chemotherapy. In cancer cells Taxol™ binds to the cyto-skeletal protein tubulin, thereby inhibiting normal microtubular assembly and inducing cellular apoptosis. Despite its potency as an anti-tumour agent, Taxol™ is also toxic to neurons, inducing dose limiting peripheral neuropathies. The addition of Taxol™ (100 ng/mL) to cultured SCG neurons induces the degradation or loss of upwards of 80% of the neurons.
FIG. 1 illustrates the protection provided by compound 1 (referred to here as AEG3482) against Taxol™ induced killing. PI Sprague Dawley rat SCG neurons were cultured and incubated with NGF (50 ng/mL) for 5 days.

CA II = CA II (Homo sapiens, UniProt P00918); experiment: CA II inhibition; format: biochemical
Description: CA II inhabition was measured using the protocol described by Pocker, Y.'Stone, J. Biochemistry 1967, 6, 668.

[3] = Rattus norvegicus, Neuron, Taxol™ (50 ng/mL), viability 48 hours later, MTS, read-out: IC(50), protection of SCG neurons from Taxol killing
[4] = read-out: IC(50), CA II inhibition
[5] = Rattus norvegicus, Neuron, 48 h

Molecule | IC50 (SCG neurons [1]; Rattus norvegicus, Neuron) [µM] | IC50 (SCG neurons [2]; [3]) [µM] | IC50 (CA II; [4]) | other results
6-(4-bromophenoxyphenyl)imidazo[2,1-b]-1,3,4-thiadiazole-2-sulfonamide [Compound 95] |  |  |  | IC50 (SCG neurons [1]): 7 µM; IC50 (SCG neurons [2]; Taxol™ (50 ng/mL), viability 48 hours later, MTS, read-out: IC(50), protection of SCG neurons from Taxol killing): 3 µM
NS(=O)(=O)c1nn2cc(-c3ccccc3F)nc2s1 [Compound 2, 6-(2-Fluorophenyl)imidazo[2,1-b]-1,3,4-thiadiazole-2-sulfonamide] | 20 |  |  | 
NS(=O)(=O)c1nn2cc(-c3cccc(F)c3)nc2s1 [Compound 3, 6-(3-Fluorophenyl)imidazo[2,1-b]-1,3,4-thiadiazole-2-sulfonamide] | 10 |  |  | 
NS(=O)(=O)c1nn2cc(-c3c(F)c(F)c(N4CCOCC4)c(F)c3F)nc2s1 [Compound 9, 6-(4-Morpholino-2,3,5,6-tetrafluorophenyl)imidazo[2,1-b]-1,3,4-thiadiazole-2-sulfonamide] | 8 |  |  | 
NS(=O)(=O)c1nn2cc(-c3ccc4c(c3)OCCCO4)nc2s1 [Compound 21, 6-(3,4-dihydro-2H-1,5-benzodioxepin-7-yl)imidazo[2,1-b]-1,3,4-thiadiazole-2-sulfonamide] | 22 | 7 | 5.32 µM | 
NS(=O)(=O)c1nn2cc(-c3ccc4c(c3)OC3(CCCCC3)O4)nc2s1 [Compound 23, 6-(2-spiro(cyclohexyl)benzo-1,3-dioxol-5-yl)imidazo[2,1,-b]-1,3,4-thiadiazole-2-sulfonamide] | 25 |  |  | 
NS(=O)(=O)c1nn2cc(-c3ccc(OCCO)cc3)nc2s1 [Compound 26] | 23 | 7 |  | 
COc1cc(-c2cn3nc(S(N)(=O)=O)sc3n2)ccc1OCCO [Compound 34] | > 30 |  |  | 
COc1cc(-c2cn3nc(S(N)(=O)=O)sc3n2)ccc1OCCOCc1ccccc1 [Compound 35] | > 30 |  |  | 
COc1cc(-c2cn3nc(S(N)(=O)=O)sc3n2)ccc1OCCCOCc1ccccc1 [Compound 36] | 17 |  |  | 
CCCCCc1ccc(-c2cn3nc(S(N)(=O)=O)sc3n2)cc1 [Compound 46, 6-(4-Pentylphenyl)imidazo[2,1-b]-1,3,4-thiadiazole-2-sulfonamide] |  | 7 | 0.601 µM | 
Cc1ccc(-c2cn3nc(S(N)(=O)=O)sc3n2)cc1 [Compound 47, 6-(4-Methylphenyl)imidazo[2,1-b]-1,3,4-thiadiazole-2-sulfonamide] |  | 6 | 0.361 µM | 
Cc1ccc(-c2cn3nc(S(N)(=O)=O)sc3n2)c(C)c1 [Compound 48, 6-(2,4-dimethylphenyl)imidazo[2,1-b]-1,3,4-thiadiazole-2-sulfonamide] |  | 5 | 0.288 µM | 
CC(C)(C)c1ccc(-c2cn3nc(S(N)(=O)=O)sc3n2)cc1 [Compound 49, 6-(4-tert-butylphenyl)imidazo[2,1-b]-1,3,4-thiadiazole-2-sulfonamide] |  | 5 | 0.466 µM | 
CC(C)(C)c1cc(-c2cn3nc(S(N)(=O)=O)sc3n2)c2c(c1)C(C)(C)CC2 [Compound 50] |  | 7 | 0.938 µM | 
NS(=O)(=O)c1nn2cc(-c3ccc(-c4ccccc4)cc3)nc2s1 [Compound 72, 6-(Biphenyl)imidazo[2,1-b]-1,3,4-thiadiazole-2-sulfonamide] | 17 | 10 | 1.61 µM and 2.19 µM | 
NS(=O)(=O)c1nn2cc(-c3ccc(-c4ccc(CO)cc4)cc3)nc2s1 [Compound 74, 6-(4-(hydroxymethylphenyl)phenyl)imidazo[2,1-b]-1,3,4-thiadiazole-2-sulfonamide] | 20 | 7 | 1.68 µM | 
COc1ccccc1-c1ccc(-c2cn3nc(S(N)(=O)=O)sc3n2)cc1 [Compound 75, 6-(4-(2-methoxyphenyl)phenyl)imidazo[2,1-b]-1,3,4-thiadiazole-2-sulfonamide] | 10 | 5 | 0.441 µM | 
NS(=O)(=O)c1nn2cc(-c3ccc(-c4ccc5c(c4)OCO5)cc3)nc2s1 [Compound 79] | 7 |  |  | 

Molecule | IC50 (SCG neurons [1]; Rattus norvegicus, Neuron) [µM] | IC50 (SCG neurons [2]; [3]) [µM] | IC50 (CA II; [4]) | other results
NS(=O)(=O)c1nn2cc(-c3ccc(-c4cccs4)cc3)nc2s1 [Compound 84, 6-(thiophen-2-yl-phenyl)imidazo[2,1-b]-1,3,4-thiadiazole-2-sulfonamide] | > 30 |  |  | 
NS(=O)(=O)c1nn2cc(-c3ccc(-c4ccsc4)cc3)nc2s1 [Compound 85, 6-(thiophen-3-yl-phenyl)imidazo[2,1-b]-1,3,4-thiadiazole-2-sulfonamide] | > 30 |  |  | 
COc1ccc(-c2cccc(-c3cn4nc(S(N)(=O)=O)sc4n3)c2)cc1 [Compound 86, 6-(4′methoxybiphen-3-yl)imidazo[2,1-b]-1,3,4-thiadiazole-2-sulfonamide] | 17 |  |  | 
NS(=O)(=O)c1nn2cc(-c3ccc(Oc4ccc(F)cc4)cc3)nc2s1 [Compound 88] | 10 |  |  | 
NS(=O)(=O)c1nn2cc(-c3ccc(Oc4ccc(F)c(F)c4)cc3)nc2s1 [Compound 89, 6-(4-(3,4-difluorophenoxy)phenyl)imidazo[2,1-b]-1,3,4-thiadiazole-2-sulfonamide] | 10 |  |  | 
NS(=O)(=O)c1nn2cc(-c3ccc(Oc4ccc(Cl)cc4)cc3)nc2s1 [Compound 91, 6-(4-chlorophenoxyphenyl)imidazo[2,1-b]-1,3,4-thiadiazole-2-sulfonamide] | 7 |  |  | 
NS(=O)(=O)c1nn2cc(-c3ccc(Oc4ccc(Cl)c(Cl)c4)cc3)nc2s1 [Compound 92, 6-(3,4-dichlorophenoxyphenyl)imidazo[2,1-b]-1,3,4-thiadiazole-2-sulfonamide] | 7 |  |  | 
NS(=O)(=O)c1nn2cc(-c3ccc(Oc4ccccc4Br)cc3)nc2s1 [Compound 93, 6-(2-bromophenoxyphenyl)imidazo[2,1-b]-1,3,4-thiadiazole-2-sulfonamide] | 7 |  |  | 
NS(=O)(=O)c1nn2cc(-c3ccc(Oc4cccc(Br)c4)cc3)nc2s1 [Compound 94, 6-(3-bromophenoxyphenyl)imidazo[2,1-b]-1,3,4-thiadiazole-2-sulfonamide] | 10 |  |  | 
CN(C)c1cccc(Oc2ccc(-c3cn4nc(S(N)(=O)=O)sc4n3)cc2)c1 [Compound 96, 6-(3-dimethylaminophenoxyphenyl)imidazo[2,1-b]-1,3,4-thiadiazole-2-sulfonamide] | 20 |  |  | 
CC(C)c1ccc(Oc2ccc(-c3cn4nc(S(N)(=O)=O)sc4n3)cc2)cc1 [Compound 97, 6-(4-(4-iso-propylphenoxy)phenyl)imidazo[2,1-b]-1,3,4-thiadiazole-2-sulfonamide] | 7 |  |  | 
COc1ccc(Oc2ccc(-c3cn4nc(S(N)(=O)=O)sc4n3)cc2)cc1 [Compound 98, 6-(4-(4-methoxyphenoxy)phenyl)imidazo[2,1-b]-1,3,4-thiadiazole-2-sulfonamide] | 17 |  |  | 
NS(=O)(=O)c1nn2cc(-c3ccccn3)nc2s1 [Compound 105, 6-(2-Pyridyl)imidazo[2,1-b]-1,3,4-thiadiazole-2-sulfonamide] |  | 7 | 0.15 µM | 
NS(=O)(=O)c1nn2cc(-c3ccccn3)nc2s1 [Compound 106, 6-(2-Pyridyl)imidazo[2,1-b]-1,3,4-thiadiazole-2-sulfonamide HCl] | 7 |  |  | 
CNS(=O)(=O)c1nn2cc(-c3ccccc3)nc2s1 [Compound 137, 6-Phenyl-imidazo[2,1-b]-1,3,4-thiadiazole-2-N-methylsulfonamide] |  | 10 |  | IC50 (SCG neurons [2]; Rattus norvegicus, Neuron, read-out: IC(50) against Taxol killing of SCGs): 7 µM; decrease in CAII activity relative to compound 1 (CA II; compound 137 versus compound 1): 100 fold; IC50 (CA II; read-out: CAII(50) / CAII IC(50)): 2.06 µM
CN(C)S(=O)(=O)c1nn2cc(-c3ccccc3)nc2s1 [Compound 139, 6-Phenyl-imidazo[2,1-b]-1,3,4-thiadiazole-2-N,N-dimethylsulfonamide] |  | 10 | 11.3 µM | 
CCCCN(CCCC)S(=O)(=O)c1nn2cc(-c3cccc(OC)c3)nc2s1 [Compound 142, 6-(3-Methoxyphenyl)imidazo[2,1-b]-1,3,4-thiadiazole-2-N,N-dibutylsulfonamide] |  | > 30 | 60.3 µM | 
COc1cccc(-c2ccc(-c3cn4nc(S(N)(=O)=O)sc4n3)cc2)c1 [Compound 149, 6-(3′-methoxybiphen-4-yl)imidazo[2,1-b]-1,3,4-thiadiazole-2-sulfonamide sodium salt] |  |  |  | IC50 (SCG neurons [1]; [5]): 7 µM
NS(=O)(=O)c1nn2cc(-c3ccc(-c4cccc(C(F)(F)F)c4)cc3)nc2s1 [Compound 150, 6-(3′-trifluoromethylbiphen-4-yl)imidazo[2,1-b]-1,3,4-thiadiazole-2-sulfonamide sodium salt] |  |  |  | IC50 (SCG neurons [1]; [5]): 7 µM
